Reference: patent publication US6441036B1 (priority 1998, dated 2002)

What was measured:
[1] = Weight reduction in dogs (Example 10); assay type: in vivo; conditions: male dogs, 500 mg/kg/day orally in capsules
Procedure: 3 male dogs (4-6 months old) were housed singly during the days. Each animal was offered 400g of SQC Diet A each morning after dosing and any residue diet was removed in the afternoon. The drug was administered orally in capsules once daily for 28 days.

[2] = Plasma free fatty acids and ketone bodies in old obese Zucker rats; assay type: in vivo, obese Zucker (fa/fa) rats; conditions: 21 week-old male rats, standard diet enriched with 0.15% TTA for 15 days; means ± SD
Procedure: (§1) Glucose (GLU, Boehringer Mannheim, Germany), free fatty acids (NEFA, C ACS-ACOD kit; Wako Chemicals, Dalton, USA) and b-hydroxybutyrate (310-A kit; Sigma Diagnostics Inc., St. Louis, USA) concentrations were measured using enzymatic methods. Insulin concentrations were determined with radioimmunoassay by (CIS bio International, Gif sur Yvette, France) using rat insulin as standard in the Zucker rats. In the Wistar Charles River rats, plasma glucose concentrations were measured with the aid of Beckman Glucose Analyzer (Fullerton, Calif., USA). Plasma insulin levels were measured using a RIA kit from Linco Research Inc. (St. Charles, Mo., USA). Phospholipids were measured by the enzymatic method of bioMérieux, Marcy-l{grave over ( )}Etoile, France, Triacylglycerol by the Technicon Method no. SA4-0324L90, USA and Cholesterol by the Technicon Method no. SA4-0305L90, USA.
Data are means±SD of six animals in both the control- and the experimental group. Free fatty acids (FFA) and ketone bodies (4-hydroxy butyrate)were measured in plasma and 3-hydroxy-3-methylglutaryl (HMG)—CoA synthase activities were measured in mitochondrial fractions prepared from the liver from 21 week-old male obese Zucker (fa/fa) rats given either a standard diet (control) or a standard diet enriched with 0.15% TTA for 15 days.

[3] = Fatty acid composition in liver and plasma of obese Zucker fa/fa rats (Example 19); assay type: in vivo; conditions: 300 mg/day/kg by gavage once daily for 10 days
Procedure: Male obese Zucker fa/fa rats, weighing 100 g at the start of the experiment, were housed in pairs in metal wire cages in a room maintained at 12 h light-dark cycles and a constant temperature of 20±° C. The animals were acclimatised for at least one week under these conditions before the start of the experiment.
TTA and palmitic acid (control), was suspended in 0.5% (w/v) carboxymethyl cellulose (CMC) and administered at a dose of 300 mg/day/kg body weight, by gastric intubation (gavage) once daily for 10 days. The rats were fasted for 2 hours before termination of the experiment. Blood and organs were collected. Total lipids were extracted from liver and plasma. The lipids were evaporated, saponified and esterified prior to separation using a Carlo Erba 2900 gas-chromatograph.

[4] = Body weight of normal rats after 12 weeks (Example 6); assay type: in vivo; conditions: male Wistar rats, oral, 12 weeks of treatment
Procedure: 2 groups of 6 male Wistar Rats were randomly selected, and studied for weight development over a period of 12 week. The body weight of each Wistar rat was measured at the start of the experiment. All animals in both groups received individually the same amount of food (nutrition) during the experimental period of 12 weeks. All animals in one of the groups were orally administrated with the medicament comprising TTA. The other group was the control group (CMC). After the 12 week period the body weight of rats were measured again.

[5] = Euglycemic hyperinsulinemic clamp, high fat diet induced insulin resistance (Example 12); assay type: in vivo, Wistar Charles River rats; conditions: HF diet supplemented with TTA, 21 days; 45-90 minutes of clamp
Procedure: After 21 days on their respective diets (see above), the rats were anaesthetised by injection of xylazine hydrochloride (Rometar SPOFA, Prague, Czech Republic; 10 mg/ml) and ketamine hydrochloride (Narkamon SPOFA, Prague, Czech republic; 75 mg/ml), and fitted with chronic carotid artery and jugular vein cannulas as described by Koopmans et al. (Koopmans, S. J., et al., Biochim Biophys Acta, 1115, […] 1992.). The cannulated rats were allowed to recover for two days after surgery before the clamping studies which were carried out according to Kraegen et al. (Kraegen, E. W., et al., Am J Physiol, 248, E353-E362 1983.). Thus, on the third day after surgery, unrestrained conscious rats were given a continuous infusion of porcine insulin (Actrapid, Novo Nordisk, Denmark) at a dose of 6.4mU per kg per min to achieve plasma insulin levels in the upper physiological range. The arterial blood glucose concentration was clamped at the basal fasting level, by variable infusion of a 30% w/v glucose solution (Leciva, Prague, Czech Republic). […]
Rats weighing 330±20 g were divided into 3 groups (n=9) and fed with three different diets: standard rat chow, high fat diet (HF) and HF supplemented with TTA. […] The glucose infusion rate (GIR) was determined from the period of the clamp where glycemia got stabilised, i.e. between 45-90 minutes after clamp commencement. […]

[6] = Fatty acid content after 12 weeks administration to rats; assay type: in vivo; conditions: administration to rats for 12 weeks
[7] = Blood insulin and glucose in 4 month old obese Zucker (fa/fa) rats (Example 13); assay type: in vivo; conditions: standard chow with 0.15% TTA, 21 days
Procedure: as §1
The rats were given a standard chow diet, either with (n=5) or without (n=6) 0.15% TTA. Following 21 days of treatment, blood was collected and the levels of insulin and glucose measured. Data are means±S.D.

Tetradecylthioacetic acid [TTA]
Mean body weight ([1]; week 0): 9.22 kg | Mean body weight ([1]; week 1): 8.95 kg | Mean body weight ([1]; week 2): 8.75 kg | Mean body weight ([1]; week 3): 8.58 kg | Mean body weight ([1]; week 4): 8.50 kg | 4-OH butyrate (plasma ketone bodies) [2]: 3.44 ± 1.37 mmol/L | FFA (plasma free fatty acids) [2]: 0.53 ± 0.21 mEq/L | Fatty acid composition in liver: Monounsaturated tetradecylthioacetic acid [3]: 1.1 ± 0.2 % of total | Fatty acid composition in liver: Oleic acid [3]: 14.9 ± 1.0 % of total | Fatty acid composition in plasma: Monounsaturated tetradecylthioacetic acid [3]: 0.2 ± 0.1 % of total | Fatty acid composition in plasma: Oleic acid [3]: 22.1 ± 0.5 % of total | Body weight gain [4]: 234 ± 20 g | Glucose infusion rate (GIR) in clamp (FIG. 4) [5]: fully normal | Hepatic and plasma content of monounsaturated fatty acids (mainly oleic acid) [6]: nearly doubled | Polyunsaturated fatty acids (mainly linoleic acid and DHA) [6]: decreased | Blood glucose concentration (FIG. 6) [7]: reduces | Blood insulin concentration (FIG. 6) [7]: reduces
